The target of the experiment is T1, YFP-TRPV6 (Homo sapiens, UniProt Q9H1D0).
T1 construct: expressed in transfected cells; host or cells: HEK293 (DSMZ), transient (TransFectin)
T1 sequence (Q9H1D0 41-765 limits assumed): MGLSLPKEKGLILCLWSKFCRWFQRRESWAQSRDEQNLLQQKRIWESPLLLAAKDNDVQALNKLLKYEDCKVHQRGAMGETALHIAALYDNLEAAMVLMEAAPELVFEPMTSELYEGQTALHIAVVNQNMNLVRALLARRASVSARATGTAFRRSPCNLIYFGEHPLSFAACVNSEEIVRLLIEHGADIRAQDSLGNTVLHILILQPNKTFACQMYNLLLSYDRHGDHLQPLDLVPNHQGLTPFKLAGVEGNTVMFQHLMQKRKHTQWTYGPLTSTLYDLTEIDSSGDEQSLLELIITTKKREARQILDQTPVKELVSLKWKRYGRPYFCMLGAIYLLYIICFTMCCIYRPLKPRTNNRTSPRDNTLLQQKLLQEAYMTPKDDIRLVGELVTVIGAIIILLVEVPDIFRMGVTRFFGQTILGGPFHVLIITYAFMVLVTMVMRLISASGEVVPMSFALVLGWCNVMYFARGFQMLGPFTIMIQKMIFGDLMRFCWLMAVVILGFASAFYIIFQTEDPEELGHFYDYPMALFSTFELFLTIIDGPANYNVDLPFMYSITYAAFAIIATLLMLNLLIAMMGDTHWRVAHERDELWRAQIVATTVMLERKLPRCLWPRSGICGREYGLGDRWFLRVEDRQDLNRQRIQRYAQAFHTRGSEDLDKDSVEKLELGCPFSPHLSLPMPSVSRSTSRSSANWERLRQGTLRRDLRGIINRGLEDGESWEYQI
Put plainly: Whole-cell electrophysiology on YFP-TRPV6 transfected HEK293 cells. The class given is cell-based. The conditions noted are these: 10 mM Ca2+, read-out: inhibition of TRPV6 current densities. As to the method:
Electrophysiological experiments on YFP-TRPV6 transiently transfected HEK293 cells confirmed the activity of 39 on TRPV6. Initially, 10 mM Ca^2+ solution was applied and after the currents reached a plateau, the inhibitors at 0.1 and 10 μM were added. […] In comparison to the previously described 1, the inhibition by 39 occurred at a slower rate and was less pronounced.
HEK293 cells (DSMZ, Germany) were cultivated in DMEM medium containing 10% FCS, 100 μg/ml streptomycin and 100 U/ml penicillin. 24 h before the experiments, a transient transfection with the peYFP-C1 TRPV6 plasmid was performed by utilising TransFectinTM Lipid Reagent (Bio-Rad).
Electrophysiological experiments were conducted at room temperature (20 - 24°C) in the whole-cell configuration with an Ag/AgCl reference electrode. Voltage ramps over a time period of 200 ms from -90 to +90 mV were performed every 5 s with a holding potential of 50 mV. The internal pipette solution consisted of 145 mM Cs-methanesulfonate, 8 mM NaCl, 5 mM MgCl2, 10 mM HEPES and 20 mM EGTA, pH 7.2. The extra cellular solution (10 mM Ca2+) contained: 145 mM NaCl, 5 mM CsCl, 1 mM MgCl 2, 10 mM HEPES, 10 mM glucose and 10 mM CaCl 2, pH 7.4. The leak-correction of the currents were conducted by subtraction of the remaining leak currents after La 3+ bock. The liquid junction potential was determined as 12 mV, though applied voltages were not corrected. […]

Consider `O=c1ccc(CN2CCN([C@H]3CC[C@@](O)(c4cccc(C(F)(F)F)c4)CC3)CC2)c[nH]1` [compound 39], for which the inhibition at 0.1 µM (0.1 μM) came out at 30.8 ± 5.1%. In addition, the inhibition at 10 µM (10 μM) stood at 88.2 ± 2%.
